Each structure is given as a SMILES string.

For the data set the following is noted: pH 7.4.
Broadly, the logD is the decadic logarithm of the distribution of all forms, ionised or not, between an organic phase and buffer at a given pH. Higher therefore signals a more lipophilic compound. The compound `CC(C)CC(O)C(CC1CCCCC1)NC(=O)C(CN=[N+]=[N-])NC(=O)C(CC(=O)N1CCCOCC1)Cc1ccccc1` (stereo not given) displayed a pH-dependent lipophilicity (logD) of 4.1.
As for `CC(C)CC(O)C(O)C(CC1CCCCC1)NC(=O)C(NC(=O)C(CC(=O)N1CCN(C)CC1)Cc1ccccc1)c1cc[nH]n1` (stereo not given), the figure is 4.02; as for `CC(C)CC(O)C(CC1CCCCC1)NC(=O)C(Cc1c[nH]cn1)NC(=O)C(CC(=O)N1CCOCC1)Cc1ccccc1` (stereo not given), 3.51; as for `CC(C)CC(O)C(CC1CCCCC1)NC(=O)C(Cc1cn(C)cn1)NC(=O)C(CC(=O)N1CCOCC1)Cc1ccccc1` (stereo not given), 3.71.
As for `CC(C)CC(O)C(O)C(CC1CCCCC1)NC(=O)C(NC(=O)C(CC(=O)N1CCN(C)CC1)Cc1ccccc1)c1c[nH]cn1` (stereo not given), the log distribution coefficient (logD) amounted to 1.66.
As for `COc1ccc(CC(CC(=O)N2CCN(C)CC2)C(=O)NC(Cc2cscn2)C(=O)NC(CC2CCCCC2)C(O)C(O)CC(C)C)cc1` (stereo not given), the figure is 3.38.
As for `CC(C)CC(O)C(CC1CCCCC1)NC(=O)C(Cc1cc[nH]n1)NC(=O)C(CC(=O)N1CCCOCC1)Cc1ccccc1` (stereo not given), the figure is 4.01; as for `CC(C)CC(O)C(CC1CCCCC1)NC(=O)C(Cn1ccnc1)NC(=O)C(CC(=O)N1CCOCC1)Cc1ccccc1` (stereo not given), 3.79.
The same measure for `CC(C)CC(O)C(CC1CCCCC1)NC(=O)C(Cc1cscn1)NC(=O)C(CC(=O)N1CCOCC1)Cc1ccccc1` (stereo not given): 4.27; for `CC(C)CC(O)C(O)C(CC1CCCCC1)NC(=O)C(Cc1cscn1)NC(=O)C(CC(=O)CN1CCCOCC1)Cc1ccccc1` (stereo not given): 3.91.

Source of the values: the SangsterLogP compilation.
